Consider ten molecules from article PMC7914897, “Cytotoxic Potential of a-Azepano- and 3-Amino-3,4-SeCo-Triterpenoids” (International Journal of Molecular Sciences, 2021).

For one assay, the system named is HL-60(TB) (Leukemia). The assay is described as follows: NCI-60 screen (SRB, 48 h). The assay is classed as cell-based. As to conditions: Homo sapiens; for CC50: read-out: LC50 (the source's name); for IC (TGI): 48 h.
A further assay concerns OVCAR-3 (Ovarian cancer). The following applies: OVCAR-3, 1 dose 10 µM.
The next assay has as its system A375 cells. As to the kind of experiment: Annexin V/PI flow cytometry. The assay is classed as cell-based, human. The following applies: A375, 48 h, 2 × EC50. The protocol: Due to its good cytotoxic properties, compound 11 was subjected to flow cytometric measurements (Annexin V/PI assay).
Thereby, the BL1-A signal corresponds to the FITC signal for annexin V (x-axis) while PI is detected at BL3-A (y-axis). Thus, cells in R1 correspond to necrotic cells, those in R2 to late apoptosis, cells in R3 are viable cells, and cells in R4 have died from apoptosis.
Approximately 600,000 cells (A375) were seeded in cell culture flasks and were allowed to grow for 1 day. After removing of the medium, the substance loaded medium was added, and the flasks were incubated for 48 h. All cells were harvested, centrifuged (1200 rpm, 5 min), and washed twice (PBS (w/w)). Approximately 100,000 cells were washed with annexin V bounding buffer (BD Biosciences®) and treated with a propidium iodide solution (3 μL, 1 mg/mL) and annexin V (5 μL, BD Biosciences®) for 15 min at room temperature in the dark. After adding annexin V bounding buffer (400 μL) the suspension was submitted to a FACS measurement.

`CC1(C)CC[C@]2(CO)CC[C@]3(C)C(=CC[C@@H]4[C@@]5(C)CCCNC(C)(C)[C@@H]5CC[C@]43C)[C@@H]2C1` [Compound 3, azepanoerythrodiol]: in the assay on HL-60(TB) (Leukemia), the concentration for 50% growth inhibition (GI50) was found to be 1950 nM and the CC50 was above 100 µM.

For `CC1(C)NCCC[C@]2(C)[C@H]3C=CC4=C5C[C@@](C)(CO)CC[C@]5(C)CC[C@@]4(C)[C@]3(C)CC[C@@H]12` [Compound 6, azepano-glycyrrhetol-diene], in the assay on HL-60(TB) (Leukemia), it took 2630 nM to inhibit growth by half (GI50), the IC (TGI) was found to be 7.02 µM and the CC50 was determined as 32.6 µM.

With `C=C(C)[C@@H]1CCC=C2CC[C@]3(C)[C@H](CC[C@@H]4[C@@]5(C)CCCNC(C)(C)[C@@H]5CC[C@]43C)[C@H]21` [Compound 8], in the assay with OVCAR-3 (Ovarian cancer), the “Growth % of the Most Sensitive Cell Lines” value is given as −93.30%.

Regarding `CC(C)=C1CCC=C2CC[C@]3(C)[C@H](CC[C@@H]4[C@@]5(C)CCCNC(C)(C)[C@@H]5CC[C@]43C)[C@H]21` [Compound 9], in the assay on HL-60(TB) (Leukemia), growth was halved (GI50) at 1700 nM, the IC (TGI) stood at 3.5 µM and the CC50 was 7.19 µM.

Consider `C=C(C)[C@@H]1CC[C@]2(C(=O)N[C@H](CO)Cc3ccccc3)CC[C@]3(C)[C@H](CC[C@@H]4[C@@]5(C)CCCNC(C)(C)[C@@H]5CC[C@]43C)[C@@H]12` [Compound 11], for which, in the assay on A375 cells, the “cells died by apoptosis (R4)” value is recorded as 44.3% and the “necrotic cells (R1)” value is listed as 1.1%. The “Growth % of the Most Sensitive Cell Lines” value with OVCAR-3 (Ovarian cancer) is listed as −95.88%. For the same molecule, in the assay with HL-60(TB) (Leukemia), the GI50 came out at 200 nM and the IC (TGI) amounted to 0.46 µM.

In the assay with HL-60(TB) (Leukemia), `C[C@H]1[C@H](C)CC[C@]2(C(=O)Nc3ccc4ncccc4c3)CC[C@]3(C)C(=CC[C@@H]4[C@@]5(C)CCCNC(C)(C)[C@@H]5CC[C@]43C)[C@H]12` [Compound 14] had a concentration for 50% growth inhibition (GI50) of 1640 nM and an IC (TGI) of 3.63 µM.

As for `Cc1ccc(S(=O)(=O)OC[C@]23CCC(C)(C)C[C@H]2C2=CC[C@@H]4[C@@]5(C)CCCNC(C)(C)[C@@H]5CC[C@@]4(C)[C@]2(C)CC3)cc1` [Compound 15], in the assay with HL-60(TB) (Leukemia), growth was halved (GI50) at 1850 nM and the IC (TGI) was determined as 4.06 µM.

In the assay with HL-60(TB) (Leukemia), `Cc1ccc(S(=O)(=O)OC[C@@]2(C)CC[C@]3(C)CC[C@]4(C)C(=C3C2)C=C[C@@H]2[C@@]3(C)CCCNC(C)(C)[C@@H]3CC[C@]24C)cc1` [Compound 16] had a GI50 of 1980 nM and an IC (TGI) of 4.02 µM.

For the molecule `C=C(C)[C@@H]1CC[C@]2(C)[C@H](CC=C3[C@@H]4[C@@H](C)[C@H](C)CC[C@]4(CO)CC[C@]32C)[C@@]1(C)CCCN` [Compound 19], in the assay on HL-60(TB) (Leukemia), the GI50 amounted to 1030 nM, the IC (TGI) was 2.27 µM and the CC50 turned out to be 5 µM.

In the assay with HL-60(TB) (Leukemia), `C=C(C)[C@@H]1CC[C@]2(C)[C@H](C=CC3=C4C[C@@](C)(CO)CC[C@]4(C)CC[C@]32C)[C@@]1(C)CCCN` [Compound 20] came in with a GI50 of 1580 nM and an IC (TGI) of 3.62 µM.
